For 17 molecules, GI50 and IC50 results are on record in patent publication US20190119284A1, “ErbB Inhibitors and Uses Thereof” (The Regents of the University of California, priority 2016, published 2019).

Format in all cases: cell-based
In test [1] the target is 2YF/3wt + NRG Ba/F3 cells (HER2YF/HER3wt) (Homo sapiens, UniProt P04626, Y1005F/Y1023F/Y1112F/Y1127F/Y1139F/Y1196F/Y1221F/Y1222F/Y1248F, cells depend on it). The test is described as follows: Ba/F3 proliferation assay, 2YF/3wt + NRG. The settings on record: Tables 7 and 8; read-out: Ba/F3 line IC50, HER2YF/HER3 + NRG. From the text: Ba/F3 cells are normally dependent on IL-3 signaling for their proliferation and survival, but can be made dependent on introduced oncogenic signals. We sequentially selected transduced Ba/F3 cells for populations stably expressing HER3 and then HER2. To ensure that all of the proliferative signal could be attributed to HER2/HER3 heterodimers, rather than HER2 homodimers, the 9 C-terminal tyrosines in HER2 were mutated to phenylalanine (HER2YF). We then withdrew IL-3 and supplemented the media with NRG to select for NRG dependent HER2YF/HER3wt cells (2YF/3wt).
For the 2YF/3wt cells, the parental cells were first transduced with HER3 according to the protocol above and were then spun down at 500×g for 5 min and re-suspended in media supplemented with 10 ng/mL IL-3 and 3 μg/mL puromycin (Invitrogen). Cells were maintained in these conditions for seven days, passaging as required. After seven days the cells were spun down, washed with fresh media, and then used for a subsequent round of transduction according to the protocol above with HER2YF virus. […] The cells were maintained in these conditions for seven days, passaging as required. After seven days the cells were spun down, washed with fresh media, and then suspended in media supplemented with 10 ng/mL of NRG. Cells were maintained in these conditions for seven days to select for a NRG dependent population of 2YF/3wt Ba/F3 cells that were then maintained as described above. The same protocol was used for the 2YF-L755S/3wt, 2YF-YVMA/3wt, and 2YF-VC/3wt cell lines using the indicated constructs.
Proliferation Assays. […] The following day media was changed to fresh media that contained either DMSO or the indicated concentration of drug plus NRG (50 ng/mL final concentration) as indicated. […] For all normalized assays, proliferation was normalized to the DMSO control condition. All graphs were plotted in GraphPad Prism 6 and fit with a non-linear regression of the log(inhibitor) vs response with a variable slope where shown. All graphs are averages (+/−standard deviation) of biological triplicates each performed in technical triplicate unless otherwise noted. If only one biological replicate was performed standard deviations were derived from the technical replicates.

For test [2], the system named is parental Ba/F3 cells + IL-3. In words: Ba/F3 proliferation assay, Parental + IL-3. The settings on record: Tables 7 and 8, read-out: Ba/F3 line IC50, Parental + IL-3. As for the experimental part: To validate the screen and test the effectiveness of counter-screening with either the same 2YF/3wt Ba/F3 cell line or the parental Ba/F3's in the presence of IL-3 to remove cytotoxic primary hits, we first tested a panel of kinase inhibitors with established mechanisms of action.
(§1) Proliferation Assays. For adherent cell lines, cells were plated onto opaque white 96 well plates (Greiner cat #655083) and allowed to adhere overnight. The following day media was changed to fresh media that contained either DMSO or the indicated concentration of drug plus NRG (50 ng/mL final concentration) as indicated. Plates were incubated at 37° C. for 72 h and proliferation was read out using Cell Titer Glo (Promega) according to the manufacturer's protocol. For Ba/F3 cell proliferation, cells, drug dilution, and any necessary growth factors (10 ng/mL IL-3 or 6.25 ng/mL NRG) were combined in a well of a 96 well plate. Plates were incubated at 37° C. for 48 h and proliferation was read out using Cell Titer Glo according to the manufacturer's protocol. For all normalized assays, proliferation was normalized to the DMSO control condition. All graphs were plotted in GraphPad Prism 6 and fit with a non-linear regression of the log(inhibitor) vs response with a variable slope where shown. All graphs are averages (+/−standard deviation) of biological triplicates each performed in technical triplicate unless otherwise noted. If only one biological replicate was performed standard deviations were derived from the technical replicates.

Test [3] relates to HER2+/2VE Ba/F3 line. The test is described as follows: Ba/F3 proliferation assay, HER2+/2VE. As to conditions: Tables 7 and 8. As for the experimental part:
as §1

Where two headings read alike, the source gives them in different places.

Chain of 2YF/3wt + NRG Ba/F3 cells (HER2YF/HER3wt) (P04626 whole entry Y1005F/Y1023F/Y1112F/Y1127F/Y1139F/Y1196F/Y1221F/Y1222F/Y1248F): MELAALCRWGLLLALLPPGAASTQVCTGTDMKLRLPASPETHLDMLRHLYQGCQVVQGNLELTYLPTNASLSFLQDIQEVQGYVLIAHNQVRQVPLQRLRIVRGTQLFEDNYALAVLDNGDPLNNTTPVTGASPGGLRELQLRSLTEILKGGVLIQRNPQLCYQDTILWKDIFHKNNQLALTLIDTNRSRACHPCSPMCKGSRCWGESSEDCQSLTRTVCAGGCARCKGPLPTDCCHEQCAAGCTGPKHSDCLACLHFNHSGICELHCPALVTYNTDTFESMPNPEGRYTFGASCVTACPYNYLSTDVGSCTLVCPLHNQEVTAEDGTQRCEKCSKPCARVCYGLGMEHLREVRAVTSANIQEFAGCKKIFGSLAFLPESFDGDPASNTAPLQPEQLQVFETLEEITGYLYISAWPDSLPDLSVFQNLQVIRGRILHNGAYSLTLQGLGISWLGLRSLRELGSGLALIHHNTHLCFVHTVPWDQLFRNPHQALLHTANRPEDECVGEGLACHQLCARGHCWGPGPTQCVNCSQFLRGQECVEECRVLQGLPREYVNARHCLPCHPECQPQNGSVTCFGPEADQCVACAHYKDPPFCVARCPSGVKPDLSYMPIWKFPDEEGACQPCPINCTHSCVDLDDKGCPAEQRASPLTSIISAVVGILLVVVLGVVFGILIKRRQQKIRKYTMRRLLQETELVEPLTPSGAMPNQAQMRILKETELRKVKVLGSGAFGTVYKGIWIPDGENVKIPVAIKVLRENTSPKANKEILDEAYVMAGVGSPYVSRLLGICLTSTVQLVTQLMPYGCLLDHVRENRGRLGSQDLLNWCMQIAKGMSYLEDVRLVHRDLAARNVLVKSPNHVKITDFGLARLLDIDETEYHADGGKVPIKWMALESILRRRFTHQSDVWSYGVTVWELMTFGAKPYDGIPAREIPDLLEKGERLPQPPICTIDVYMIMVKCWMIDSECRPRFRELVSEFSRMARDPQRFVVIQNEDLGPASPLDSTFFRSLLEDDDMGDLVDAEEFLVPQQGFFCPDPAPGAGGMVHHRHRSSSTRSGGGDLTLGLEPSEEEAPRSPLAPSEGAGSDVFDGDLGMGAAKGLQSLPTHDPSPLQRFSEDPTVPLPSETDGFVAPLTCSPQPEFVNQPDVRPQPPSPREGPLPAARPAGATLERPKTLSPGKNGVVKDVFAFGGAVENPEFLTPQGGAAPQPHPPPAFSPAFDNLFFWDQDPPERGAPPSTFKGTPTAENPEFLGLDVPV

`COc1ccc(-c2ccccc2)cc1Nc1nc(N)nc2[nH]nc(-c3ccco3)c12` [Cmpd 65]: the GI50 in test [1] came out at 4 nM. Further, the IC50 in test [2] (Mus musculus, BaF3) is 8.4 nM; in test [3] (Mus musculus, BaF3), 11 nM.
For the molecule `COc1ccc(-c2csc(C)n2)cc1Nc1ncnc2[nH]nc(-c3ccco3)c12` [Cmpd 66A], the GI50 in test [1] came out at 1560 nM. This molecule also yielded an IC50 in test [3] (Mus musculus, BaF3) of 2340 nM.
On to `COc1ccc(-c2sccc2C)cc1Nc1ncnc2[nH]nc(-c3ccco3)c12` [Cmpd 66B], for which the GI50 in test [1] is 31 nM. Besides, in test [3] (Mus musculus, BaF3), the IC50 stood at 210 nM.
For `COc1ccc(-c2ccnn2C)cc1Nc1ncnc2[nH]nc(-c3ccco3)c12` [Cmpd 66C], the GI50 in test [1] turned out to be 362 nM. Also, the IC50 in test [3] (Mus musculus, BaF3) is 642 nM.
`COc1ccc(-c2ccoc2)cc1Nc1ncnc2[nH]nc(-c3ccccc3)c12` [Cmpd 144A]: in test [1], the GI50 amounted to 171 nM. The IC50 in test [2] (Mus musculus, BaF3) is more than 3330 nM; in test [3] (Mus musculus, BaF3), 1080 nM.
Consider `COc1ccc(-c2ccoc2)cc1Nc1ncnc2[nH]nc(-c3cnn(C)c3)c12` [Cmpd 144B], for which the GI50 in test [1] came to 21.4 nM. The IC50 in test [2] (Mus musculus, BaF3) is more than 3330 nM; in test [3] (Mus musculus, BaF3) it was 308 nM.
On to `CCOc1ccc(-c2ccccc2)cc1Nc1ncnc2[nH]nc(-c3cn[nH]c3)c12` [Cmpd 147], for which, in test [1], the GI50 was determined as 58.7 nM. Further, the IC50 in test [2] (Mus musculus, BaF3) came to 1360 nM; in test [3] (Mus musculus, BaF3) it was 359 nM.
For the molecule `COc1ccc(-c2ccoc2)cc1Nc1ncnc2[nH]nc(-c3ccnn3C)c12` [Cmpd 152], in test [1], the GI50 came to 822 nM. Besides, the IC50 was more than 10000 nM in test [2] (Mus musculus, BaF3) and 2570 nM in test [3] (Mus musculus, BaF3).
For `CCOc1ccc(-c2ccoc2)cc1Nc1ncnc2[nH]nc(-c3cn[nH]c3)c12` [Cmpd 153], in test [1], the GI50 was found to be 17.5 nM. For the same molecule, the IC50 in test [2] (Mus musculus, BaF3) was more than 3330 nM; in test [3] (Mus musculus, BaF3), 285 nM.
For the molecule `COc1ccc(-c2ccnn2C)cc1Nc1ncnc2[nH]nc(-c3cn[nH]c3)c12` [Cmpd 154A], the GI50 in test [1] is more than 10000 nM. In addition, the IC50 in test [2] (Mus musculus, BaF3) is more than 10000 nM; in test [3] (Mus musculus, BaF3) it was more than 10000 nM.
Consider `COc1ccc(-c2sccc2C)cc1Nc1ncnc2[nH]nc(-c3cn[nH]c3)c12` [Cmpd 154B], for which the GI50 in test [1] was found to be 39.3 nM. For the same molecule, the IC50 in test [2] (Mus musculus, BaF3) was more than 10000 nM; in test [3] (Mus musculus, BaF3), 295 nM.
`COc1ccc(-c2cnn(C)c2)cc1Nc1ncnc2[nH]nc(-c3cn[nH]c3)c12` [Cmpd 154C]: in test [1], the GI50 is more than 10000 nM. The IC50 in test [2] (Mus musculus, BaF3) was more than 10000 nM; in test [3] (Mus musculus, BaF3) it was more than 10000 nM.
With `COc1ccc(-c2ccc(C#N)s2)cc1Nc1ncnc2[nH]cc(-c3cn[nH]c3)c12` [Cmpd 170], the GI50 in test [1] worked out at 687 nM. The IC50 in test [3] (Mus musculus, BaF3) amounted to 673 nM.
In the case of `CCOc1ccc(-c2ccccc2)cc1Nc1ncnc2[nH]cc(-c3cn[nH]c3)c12` [Cmpd 171], the GI50 in test [1] came out at 45 nM. The same molecule displayed an IC50 in test [3] (Mus musculus, BaF3) of 183 nM.
For `COc1ccc(-c2csc(C)c2)cc1Nc1ncnc2[nH]cc(-c3cn[nH]c3)c12` [Cmpd 172], in test [1], the GI50 is 910 nM. Further, in test [3] (Mus musculus, BaF3), the IC50 was found to be 422 nM.
Take `COc1ccc(-c2ccoc2)cc1Nc1ncnc2[nH]cc(-c3ccc4nc[nH]c4c3)c12` [Cmpd 173B]: the GI50 in test [1] turned out to be 32 nM. This molecule yielded an IC50 in test [3] (Mus musculus, BaF3) of 228 nM.
For the molecule `CCOc1ccc(-c2ccccc2)cc1Nc1ncnc2[nH]cc(-c3cc[nH]n3)c12` [Cmpd 176], the GI50 in test [1] turned out to be 29 nM. Further, the values for the IC50 in test [2] and in test [3] were 2290 nM and 217 nM, respectively.
